PubChem BioAssay (NCI)
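The compound was tested at five concentrations on cells cultured in 96-well plates, with a 48-hour exposure period. GI50: concentration for 50% inhibition of growth. The concentration for full growth arrest is given as TGI.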

What was measured:
Assay in all cases: inhibition of tumour cell growth, NCI panel, 48 h
[1] = system: 786-0 renal
[2] = system: A498 renal
[3] = system: A549 NSCLC
[4] = system: ACHN renal
[5] = system: BT-549 breast
[6] = system: CAKI-1 renal
[7] = system: CCRF-CEM leukemia
[8] = system: COLO 205 colon
[9] = system: DU-145 prostate
[10] = system: EKVX NSCLC
[11] = system: HCC-2998 colon
[12] = system: HCT-116 colon
[13] = system: HCT-15 colon
[14] = system: HL-60(TB) leukemia
[15] = system: HOP-62 NSCLC
[16] = system: HOP-92 NSCLC
[17] = system: HS 578T breast
[18] = system: HT29 colon
[19] = system: IGROV1 ovarian
[20] = system: K-562 leukemia
[21] = system: KM12 colon
[22] = system: LOX IMVI melanoma
[23] = system: M14 melanoma
[24] = system: MALME-3M melanoma
[25] = system: MCF7 breast
[26] = system: MDA-MB-231 breast
[27] = system: MDA-MB-435
[28] = system: MOLT-4 leukemia
[29] = system: NCI-H226 lung
[30] = system: NCI-H23 lung
[31] = system: NCI-H460 lung
[32] = system: NCI-H522 lung
[33] = system: NCI/ADR-RES ovarian
[34] = system: OVCAR-3 ovarian
[35] = system: OVCAR-4 ovarian
[36] = system: OVCAR-5 ovarian
[37] = system: OVCAR-8 ovarian
[38] = system: PC-3 prostate
[39] = system: RPMI-8226 leukemia
[40] = system: RXF 393 renal
[41] = system: SF-268 CNS
[42] = system: SF-295 CNS
[43] = system: SF-539 CNS
[44] = system: SK-MEL-2 melanoma
[45] = system: SK-MEL-28 melanoma
[46] = system: SK-MEL-5 melanoma
[47] = system: SK-OV-3 ovarian
[48] = system: SN12C renal
[49] = system: SNB-19 CNS
[50] = system: SNB-75 CNS
[51] = system: SR leukemia
[52] = system: SW-620 colon
[53] = system: T-47D breast
[54] = system: TK-10 renal
[55] = system: U251 CNS
[56] = system: UACC-257 melanoma
[57] = system: UACC-62 melanoma
[58] = system: UO-31 renal

`Oc1c(C(c2ccc(F)cc2)N2CCCCC2)ccc2cncnc12` (stereo unspecified) showed a GI50 [1] of 1690 nM, a TGI [1] greater than 100000 nM and a GI50 [2] of 1460 nM. It also gave a TGI [2] of 9430 nM, a GI50 [3] of 377 nM and a TGI [3] greater than 51300 nM. The GI50 [4] was 1240 nM, the TGI [4] was greater than 100000 nM and the GI50 [5] was 576 nM. It also gave a TGI [5] greater than 100000 nM, a GI50 [6] of 899 nM and a TGI [6] of 13400 nM. It also gave a GI50 [7] of 477 nM, a TGI [7] greater than 100000 nM and a GI50 [8] of 3300 nM. It also gave a TGI [8] greater than 100000 nM, a GI50 [9] of 784 nM and a TGI [9] greater than 100000 nM. It also gave a GI50 [10] of 672 nM, a TGI [10] of 45900 nM and a GI50 [11] of 2090 nM. For the same compound, the TGI [11] was greater than 100000 nM, the GI50 [12] was 364 nM and the TGI [12] was greater than 100000 nM. It also gave a GI50 [13] of 2110 nM, a TGI [13] greater than 100000 nM and a GI50 [14] of 1140 nM. For the same compound, the TGI [14] was 6220 nM, the GI50 [15] was 513 nM and the TGI [15] was greater than 100000 nM. For the same compound, the GI50 [16] was 313 nM, the TGI [16] was 2960 nM and the GI50 [17] was 432 nM. The TGI [17] was greater than 100000 nM, the GI50 [18] was 747 nM and the TGI [18] was greater than 100000 nM. It also gave a GI50 [19] of 532 nM, a TGI [19] of 21700 nM and a GI50 [20] of 503 nM. The TGI [20] was greater than 100000 nM, the GI50 [21] was 1070 nM and the TGI [21] was greater than 100000 nM. The GI50 [22] was 432 nM, the TGI [22] was greater than 100000 nM and the GI50 [23] was 746 nM. For the same compound, the TGI [23] was greater than 75200 nM, the GI50 [24] was 1170 nM and the TGI [24] was 47900 nM. It also gave a GI50 [25] of 344 nM, a TGI [25] greater than 39400 nM and a GI50 [26] of 1500 nM. For the same compound, the TGI [26] was greater than 100000 nM, the GI50 [27] was 412 nM and the TGI [27] was greater than 100000 nM. It also gave a GI50 [28] of 1380 nM, a TGI [28] greater than 100000 nM and a GI50 [29] of 1190 nM. For the same compound, the TGI [29] was 19400 nM, the GI50 [30] was 414 nM and the TGI [30] was greater than 100000 nM. The GI50 [31] was 351 nM, the TGI [31] was 14100 nM and the GI50 [32] was 353 nM. The TGI [32] was 10200 nM, the GI50 [33] was 2580 nM and the TGI [33] was greater than 100000 nM. For the same compound, the GI50 [34] was 783 nM, the TGI [34] was greater than 100000 nM and the GI50 [35] was 1770 nM. The TGI [35] was greater than 100000 nM, the GI50 [36] was 1280 nM and the TGI [36] was greater than 100000 nM. It also gave a GI50 [37] of 453 nM, a TGI [37] greater than 100000 nM and a GI50 [38] of 426 nM. For the same compound, the TGI [38] was greater than 100000 nM, the GI50 [39] was 555 nM and the TGI [39] was greater than 100000 nM. The GI50 [40] was 416 nM, the TGI [40] was 12200 nM and the GI50 [41] was 484 nM. For the same compound, the TGI [41] was greater than 100000 nM, the GI50 [42] was 413 nM and the TGI [42] was greater than 100000 nM. It also gave a GI50 [43] of 388 nM, a TGI [43] greater than 81200 nM and a GI50 [44] of 527 nM. It also gave a TGI [44] of 5860 nM, a GI50 [45] of 710 nM and a TGI [45] greater than 100000 nM. It also gave a GI50 [46] of 529 nM, a TGI [46] of 3630 nM and a GI50 [47] of 571 nM. It also gave a TGI [47] of 38800 nM, a GI50 [48] of 396 nM and a TGI [48] greater than 100000 nM. For the same compound, the GI50 [49] was 396 nM, the TGI [49] was greater than 100000 nM and the GI50 [50] was 246 nM. For the same compound, the TGI [50] was 3950 nM, the GI50 [51] was 675 nM and the TGI [51] was greater than 100000 nM. It also gave a GI50 [52] of 478 nM, a TGI [52] greater than 100000 nM and a GI50 [53] of 612 nM. It also gave a TGI [53] of 97000 nM, a GI50 [54] of 1350 nM and a TGI [54] greater than 100000 nM. For the same compound, the GI50 [55] was 325 nM, the TGI [55] was greater than 100000 nM and the GI50 [56] was 711 nM. It also gave a TGI [56] of 12200 nM, a GI50 [57] of 476 nM and a TGI [57] of 5110 nM. For the same compound, the GI50 [58] was 834 nM and the TGI [58] was 6620 nM.

`CCN(CC)CCOc1nc2ccccc2c2c1-c1ccc(OC)cc1C2=O` was tested, and the GI50 [1] was 1170 nM, the TGI [1] was 2680 nM and the GI50 [2] was 728 nM. It also gave a TGI [2] of 2180 nM, a GI50 [3] of 514 nM and a TGI [3] of 4550 nM. For the same compound, the GI50 [4] was 364 nM, the TGI [4] was 2020 nM and the GI50 [5] was 3290 nM. For the same compound, the TGI [5] was 13800 nM, the GI50 [6] was 486 nM and the TGI [6] was 3660 nM. It also gave a GI50 [7] of 267 nM, a TGI [7] of 2230 nM and a GI50 [8] of 490 nM. The TGI [8] was 1880 nM, the GI50 [9] was 505 nM and the TGI [9] was 2160 nM. For the same compound, the GI50 [10] was 1590 nM, the TGI [10] was 4790 nM and the GI50 [11] was 1260 nM. It also gave a TGI [11] of 3210 nM, a GI50 [12] of 331 nM and a TGI [12] of 1550 nM. For the same compound, the GI50 [13] was 472 nM, the TGI [13] was 4820 nM and the GI50 [14] was 395 nM. The TGI [14] was 1850 nM, the GI50 [15] was 1130 nM and the GI50 [16] was 2090 nM. For the same compound, the TGI [16] was greater than 28600 nM, the GI50 [17] was 1190 nM and the TGI [17] was 5780 nM. It also gave a GI50 [18] of 334 nM, a TGI [18] of 1540 nM and a GI50 [19] of 384 nM. For the same compound, the TGI [19] was 2630 nM, the GI50 [20] was 276 nM and the TGI [20] was 1190 nM. The GI50 [21] was 395 nM, the TGI [21] was 1580 nM and the GI50 [22] was 432 nM. It also gave a TGI [22] of 1810 nM, a GI50 [23] of 1360 nM and a TGI [23] of 3000 nM. It also gave a GI50 [24] of 628 nM, a TGI [24] of 1970 nM and a GI50 [25] of 345 nM. For the same compound, the TGI [25] was 2230 nM, the GI50 [26] was 1400 nM and the TGI [26] was 6220 nM. For the same compound, the GI50 [27] was 881 nM, the TGI [27] was 2360 nM and the GI50 [28] was 251 nM. The TGI [28] was 924 nM, the GI50 [29] was 935 nM and the TGI [29] was 4420 nM. For the same compound, the GI50 [30] was 1270 nM, the TGI [30] was 4070 nM and the GI50 [31] was 317 nM. For the same compound, the TGI [31] was 1300 nM, the GI50 [32] was 613 nM and the TGI [32] was 2400 nM. The GI50 [33] was 807 nM, the TGI [33] was 34500 nM and the GI50 [34] was 642 nM. It also gave a TGI [34] of 2150 nM, a GI50 [35] of 1360 nM and a TGI [35] of 6830 nM. For the same compound, the GI50 [36] was 1610 nM, the TGI [36] was 7510 nM and the GI50 [37] was 527 nM. The TGI [37] was 5700 nM, the GI50 [38] was 1440 nM and the TGI [38] was 23300 nM. The GI50 [39] was 449 nM, the TGI [39] was 2150 nM and the GI50 [40] was 1630 nM. The TGI [40] was 4440 nM, the GI50 [41] was 445 nM and the TGI [41] was 2050 nM. For the same compound, the GI50 [42] was 1910 nM, the TGI [42] was 12400 nM and the GI50 [43] was 1340 nM. For the same compound, the TGI [43] was 4250 nM, the GI50 [44] was 2140 nM and the TGI [44] was 4360 nM. For the same compound, the GI50 [45] was 1630 nM, the TGI [45] was 3290 nM and the GI50 [46] was 1520 nM. The TGI [46] was 3090 nM, the GI50 [47] was 2480 nM and the TGI [47] was greater than 36600 nM. It also gave a GI50 [48] of 502 nM, a TGI [48] of 6210 nM and a GI50 [49] of 788 nM. It also gave a TGI [49] of 6600 nM, a GI50 [50] of 1440 nM and a TGI [50] of 5190 nM. The GI50 [51] was 316 nM, the TGI [51] was 1070 nM and the GI50 [52] was 282 nM. The TGI [52] was 1580 nM, the GI50 [53] was 2510 nM and the TGI [53] was 8800 nM. For the same compound, the GI50 [54] was 1850 nM, the TGI [54] was 12600 nM and the GI50 [55] was 446 nM. The TGI [55] was 2300 nM, the GI50 [56] was 1600 nM and the TGI [56] was 3380 nM. For the same compound, the GI50 [57] was 1700 nM, the TGI [57] was 4480 nM and the GI50 [58] was 130 nM. It also gave a TGI [58] of 1410 nM.
